Data: patent US11253516B2, “N2,N4-diphenylpyrimidine-2,4-diamine derivative, method for preparing same, and pharmaceutical composition containing same as active ingredient for prevention or treatment of cancer” (Korea Research Institute of Chemical Technology, priority 2017, dated 2022)
Where two headings read alike, the source gives them in different places.

Legend:
EGFR del19 = EGFR del19 (Homo sapiens (Human), UniProt P00533, DEL746-750); experiment: HTRF enzyme assay, EGFR del19; assay type: biochemical; settings: recombinant enzyme
Method: (§1) The measurement of an activity on wild-type and EGFR mutation enzyme of the compound of the present invention was experimented by utilizing the HTRF system sold by Cisbio, as follow.
(§2) The composition of the assay buffer used in the activity measurement was 50 mM Tris-HCl pH 7.5, 100 mM NaCl, 7.5 mM MgCl2, 3 mM KCl, 0.01% Tween 20, 0.1% BSA, 1 mM DTT. The enzymatic reaction was carried out hereto by using the peptide substrate labeled with ATP of […] concentration and biotin of […] concentration. The analysis of an EGFR activity inhibitory effect of the compound was carried out in accordance with the analysis reaction recipe below.
(§3) Component 1: […] of EGFR wild-type or mutation enzyme
(§4) Component 2: […] of compound solution
(§5) Component 3: […] of peptide labeled with ATP and biotin
(§6) The enzymatic reaction was initiated by mixing Component 1 and Component 2 first, and then, adding component 3. After the reaction for 2 hours at 37° C., […] of a measurement solution consisting of streptavidin-XL665 provided by Cisbio and anti-phosphotyrosine antibody labeled with europium was added to the enzymatic reaction solution and reacted for 1 hour at ambient temperature. […] The measurement values measured at the seven concentrations of the compound were analyzed by using the Prism program (version 5.01, Graphpad Software, Inc.), and IC50 value of the compound was calculated, which is an inhibitory ability indicator.

EGFR del19/T790M/C797S = EGFR del19/T790M/C797S (Homo sapiens, UniProt P00533, C797S/DEL746-750/T790M); experiment: HTRF enzyme assay, EGFR del19/T790M/C797S; assay type: biochemical
Method: as §1, §2, §3, §4, §5, §6

[1] = system: Ba/F3 EGFR del19/T790M/C797S cell line; experiment: CellTiter-Glo cell viability, Ba/F3 EGFR del19/T790M/C797S; assay type: cell-based; settings: read-out: Ba/F3 EGFR del19/T790M/C797S IC50
Method: (§7) The measurement of an activity on wild-type and mutation Ba/F3 EGFR cell line of the compound of the present invention was experimented by utilizing the CellTiter-Glo system sold by Promega, as follow. The CellTiter-Glo assay is a method for measuring the ATP present in cells in cell culture conditions to determine the cell viability.
(§8) The analysis of an EGFR inhibitory ability effect of the compound was carried out in accordance with the analysis reaction recipe below.
(§9) After the reaction of 72 hours, the plate treated with the compound was allowed to stand for 30 minutes at ambient temperature, and then, was further treated with 100 μl of the reagent, and was shaked for 10 minutes at ambient temperature.

EGFR wt. = EGFR wt. (Homo sapiens (Human), UniProt P00533); experiment: HTRF enzyme assay, wild-type EGFR; assay type: biochemical; settings: recombinant enzyme
Method: as §1, §2, §3, §4, §5, §6

EGFR del19/T790M = EGFR del19/T790M (Homo sapiens (Human), UniProt P00533, DEL746-750/T790M); experiment: HTRF enzyme assay, EGFR del19/T790M; assay type: biochemical; settings: recombinant enzyme
Method: as §1, §2, §3, §4, §5, §6

[2] = system: Ba/F3 EGFR del19 cell line; experiment: CellTiter-Glo cell viability, Ba/F3 EGFR del19; assay type: cell-based; settings: 72 hours
Method: as §7, §8
(§10) After the reaction of 72 hours, the plate treated with the compound was allowed to stand for 30 minutes at ambient temperature, and then, was further treated with 100 μl of the reagent, and was shaked for 10 minutes at ambient temperature. […] The measurement values measured at the eight concentrations of the compound were analyzed by using the Prism program (version 5.01, Graphpad Software, Inc.), and IC50 value of the compound was calculated, which is an inhibitory ability indicator.

Ba/F3 EGFR wt. cell line = experiment: CellTiter-Glo cell viability, Ba/F3 EGFR wild-type; assay type: cell-based; settings: 72 hours
Method: as §7, §8, §10

[3] = system: Ba/F3 EGFR del19/T790M cell line; experiment: CellTiter-Glo cell viability, Ba/F3 EGFR del19/T790M; assay type: cell-based; settings: read-out: Ba/F3 EGFR del19/T790M IC50
Method: as §7, §8, §9

[4] = HTRF, recombinant enzyme, read-out: EGFR del19/T790M/C797S IC50

Chain of EGFR del19/T790M/C797S (P00533 with tags, fused parts or gaps C797S/DEL746-750/T790M limits assumed): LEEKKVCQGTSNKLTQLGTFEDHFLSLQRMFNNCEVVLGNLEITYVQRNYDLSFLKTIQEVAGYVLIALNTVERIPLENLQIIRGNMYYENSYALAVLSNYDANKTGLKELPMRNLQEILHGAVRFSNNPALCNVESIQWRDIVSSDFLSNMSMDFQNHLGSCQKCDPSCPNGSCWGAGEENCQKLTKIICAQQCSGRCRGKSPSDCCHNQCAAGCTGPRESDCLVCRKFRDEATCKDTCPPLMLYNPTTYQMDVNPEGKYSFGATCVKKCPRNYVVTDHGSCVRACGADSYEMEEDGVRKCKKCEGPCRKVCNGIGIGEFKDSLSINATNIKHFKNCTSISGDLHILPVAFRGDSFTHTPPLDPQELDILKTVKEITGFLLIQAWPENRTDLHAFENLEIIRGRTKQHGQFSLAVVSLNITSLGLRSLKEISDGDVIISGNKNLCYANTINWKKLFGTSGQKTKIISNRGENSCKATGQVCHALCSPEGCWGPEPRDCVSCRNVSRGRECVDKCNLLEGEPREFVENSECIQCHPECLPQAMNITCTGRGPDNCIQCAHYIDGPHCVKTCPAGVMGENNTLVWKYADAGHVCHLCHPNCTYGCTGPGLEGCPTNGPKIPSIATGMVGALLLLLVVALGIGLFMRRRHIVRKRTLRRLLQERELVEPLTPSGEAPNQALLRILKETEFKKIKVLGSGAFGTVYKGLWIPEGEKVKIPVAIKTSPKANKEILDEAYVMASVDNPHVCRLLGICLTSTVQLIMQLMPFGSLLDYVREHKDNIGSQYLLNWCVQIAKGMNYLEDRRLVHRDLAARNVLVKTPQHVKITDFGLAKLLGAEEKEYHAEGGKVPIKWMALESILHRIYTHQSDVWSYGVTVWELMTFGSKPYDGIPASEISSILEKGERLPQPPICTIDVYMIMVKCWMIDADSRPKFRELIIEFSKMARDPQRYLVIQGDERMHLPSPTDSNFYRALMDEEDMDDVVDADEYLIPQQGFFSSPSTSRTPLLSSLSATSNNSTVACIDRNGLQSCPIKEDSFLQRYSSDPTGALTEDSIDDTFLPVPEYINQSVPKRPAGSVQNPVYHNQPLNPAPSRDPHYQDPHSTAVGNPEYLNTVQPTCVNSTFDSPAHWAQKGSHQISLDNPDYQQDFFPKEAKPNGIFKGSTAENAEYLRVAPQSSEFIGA
Chain of EGFR del19/T790M (P00533 other isoform, or with tags, fused parts or gaps T790M/del 1-668/del 746-750 limits assumed): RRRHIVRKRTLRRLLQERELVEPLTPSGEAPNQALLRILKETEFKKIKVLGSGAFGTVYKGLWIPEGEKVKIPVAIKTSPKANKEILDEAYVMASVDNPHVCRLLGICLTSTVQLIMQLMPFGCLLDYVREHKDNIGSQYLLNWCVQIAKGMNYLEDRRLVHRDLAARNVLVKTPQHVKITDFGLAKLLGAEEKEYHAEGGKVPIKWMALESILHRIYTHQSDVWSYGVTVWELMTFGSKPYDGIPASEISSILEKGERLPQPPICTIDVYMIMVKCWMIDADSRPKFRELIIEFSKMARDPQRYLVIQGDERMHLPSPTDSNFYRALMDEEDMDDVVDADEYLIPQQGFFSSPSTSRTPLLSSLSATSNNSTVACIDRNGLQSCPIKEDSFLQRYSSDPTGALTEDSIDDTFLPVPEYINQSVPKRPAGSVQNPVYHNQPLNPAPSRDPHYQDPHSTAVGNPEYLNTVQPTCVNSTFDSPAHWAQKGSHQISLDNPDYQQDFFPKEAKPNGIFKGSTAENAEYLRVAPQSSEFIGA
Chain of EGFR del19 (P00533 other isoform, or with tags, fused parts or gaps del 1-668/del 746-750 limits assumed): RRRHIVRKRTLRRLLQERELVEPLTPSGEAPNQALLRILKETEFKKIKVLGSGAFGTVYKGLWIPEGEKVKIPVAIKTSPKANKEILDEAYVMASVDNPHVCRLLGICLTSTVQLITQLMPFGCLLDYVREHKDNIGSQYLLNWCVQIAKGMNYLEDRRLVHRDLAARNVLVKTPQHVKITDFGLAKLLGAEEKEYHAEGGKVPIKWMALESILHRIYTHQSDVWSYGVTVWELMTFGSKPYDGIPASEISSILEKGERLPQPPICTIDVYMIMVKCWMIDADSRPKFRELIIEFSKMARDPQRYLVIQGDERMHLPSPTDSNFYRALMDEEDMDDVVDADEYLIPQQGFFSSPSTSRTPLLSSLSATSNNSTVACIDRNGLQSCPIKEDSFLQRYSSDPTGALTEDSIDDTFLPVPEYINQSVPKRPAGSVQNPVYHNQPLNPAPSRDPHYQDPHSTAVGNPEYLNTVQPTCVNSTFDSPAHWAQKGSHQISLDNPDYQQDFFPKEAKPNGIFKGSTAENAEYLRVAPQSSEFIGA
Chain of EGFR wt. (P00533 25-1210): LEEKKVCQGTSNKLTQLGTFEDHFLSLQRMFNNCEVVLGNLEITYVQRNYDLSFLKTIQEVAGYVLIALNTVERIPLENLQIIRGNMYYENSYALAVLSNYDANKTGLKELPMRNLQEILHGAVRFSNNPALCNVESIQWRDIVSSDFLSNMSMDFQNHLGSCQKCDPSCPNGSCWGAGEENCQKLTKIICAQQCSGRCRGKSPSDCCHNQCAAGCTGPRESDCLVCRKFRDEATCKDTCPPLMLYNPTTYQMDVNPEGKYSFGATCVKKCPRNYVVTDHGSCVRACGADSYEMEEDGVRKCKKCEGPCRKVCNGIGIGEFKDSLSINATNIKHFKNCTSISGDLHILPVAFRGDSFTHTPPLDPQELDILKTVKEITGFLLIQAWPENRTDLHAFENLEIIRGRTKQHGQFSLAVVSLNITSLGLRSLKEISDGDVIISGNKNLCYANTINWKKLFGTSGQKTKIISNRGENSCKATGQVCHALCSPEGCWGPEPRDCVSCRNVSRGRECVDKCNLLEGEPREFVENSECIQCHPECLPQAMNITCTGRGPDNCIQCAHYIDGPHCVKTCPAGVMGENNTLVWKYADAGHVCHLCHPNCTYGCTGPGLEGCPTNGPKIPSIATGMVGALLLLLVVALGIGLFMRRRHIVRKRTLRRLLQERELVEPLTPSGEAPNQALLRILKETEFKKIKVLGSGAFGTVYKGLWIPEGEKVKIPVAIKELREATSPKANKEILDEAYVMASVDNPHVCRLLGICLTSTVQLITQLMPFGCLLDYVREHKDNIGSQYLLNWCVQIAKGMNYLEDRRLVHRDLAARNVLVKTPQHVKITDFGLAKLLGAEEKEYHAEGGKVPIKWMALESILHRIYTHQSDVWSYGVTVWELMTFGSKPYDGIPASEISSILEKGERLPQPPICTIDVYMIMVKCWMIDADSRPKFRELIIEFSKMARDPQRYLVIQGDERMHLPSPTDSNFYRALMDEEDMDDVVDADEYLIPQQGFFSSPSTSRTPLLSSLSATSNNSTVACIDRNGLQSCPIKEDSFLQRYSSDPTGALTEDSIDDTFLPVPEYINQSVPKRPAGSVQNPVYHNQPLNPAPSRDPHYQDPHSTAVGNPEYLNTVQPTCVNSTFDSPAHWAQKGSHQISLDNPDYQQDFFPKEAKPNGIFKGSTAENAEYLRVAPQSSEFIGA

Row | SMILES | IC50 (EGFR del19) | IC50 (EGFR del19/T790M/C797S; [4]) | IC50 ([1]; CellTiter-Glo, 72 hours) | IC50 (EGFR wt.) | IC50 (EGFR del19/T790M) | IC50 [2] | IC50 (Ba/F3 EGFR wt. cell line) | IC50 ([3]; CellTiter-Glo, 72 hours) | IC50 (EGFR del19/T790M/C797S) | IC50 ([1]; 72 h) | IC50 ([3]; 72 h)
1 | COc1cc(N2CCC(N3CCCC3)CC2)ccc1Nc1ncc(Cl)c(Nc2ccccc2NS(C)(=O)=O)n1 [Example 35, N-(2-((5-chloro-2-((2-methoxy-4-(4-(pyrrolidin-1-yl)piperidin-1-yl)phenyl)amino)pyrimidin-4-yl)amino)phenyl)methanesulfonamide] | 1.1 nM | < 1 nM | 84 nM | 27 nM | 8.3 nM |  |  |  |  |  | 
2 | COc1cc(C2CCN(C)CC2)ccc1Nc1ncc(Cl)c(Nc2ccccc2NS(C)(=O)=O)n1 [Example 12, N-(2-((5-chloro-2-((2-methoxy-4-(1-methylpiperidin-4-yl)phenyl)amino)pyrimidin-4-yl)amino)phenyl)methanesulfonamide] | 22 nM | 2 nM | 80 nM | 1200 nM | 130 nM | 330 nM | 320 nM | 380 nM |  |  | 
3 | COc1cc(N2CCC(N(C)C)CC2)ccc1Nc1ncc(Cl)c(Nc2ccccc2NS(N)(=O)=O)n1 [Example 36] |  |  | 930 nM |  |  |  |  |  |  |  | 
4 | COc1cc(C2CCN(CCO)CC2)ccc1Nc1ncc(Cl)c(Nc2ccccc2NS(C)(=O)=O)n1 [Example 13, N-(2-((5-chloro-2-((4-(1-(2-hydroxyethyl)piperidin-4-yl)-2-methoxyphenyl)amino)pyrimidin-4-yl)amino)phenyl)methanesulfonamide] | 13 nM | 33 nM | 1500 nM | 1900 nM | 250 nM | 980 nM | 4400 nM | 650 nM |  |  | 
5 | COc1cc(C2CCNCC2)ccc1Nc1ncc(Br)c(Nc2ccccc2NS(C)(=O)=O)n1 [Example 3, N-(2-((5-bromo-2-((2-methoxy-4-(piperidin-4-yl)phenyl)amino)pyrimidin-4-yl)amino)phenyl)methanesulfonamide] | 18 nM | 2 nM | 1600 nM | 840 nM | 5 nM | 1000 nM | 4100 nM | 1200 nM |  |  | 
6 | COc1cc(C2CCN(C3CCN(C(C)=O)CC3)CC2)ccc1Nc1ncc(Cl)c(Nc2ccccc2NS(C)(=O)=O)n1 [Example 18, N-(2-((2-((4-(1′-acetyl-[1,4′-bipiperidin]-4-yl)-2-methoxyphenyl)amino)-5-chloropyrimidin-4-yl)amino)phenyl)methanesulfonamide] | 13 nM | 30 nM | 2000 nM | 970 nM | 92 nM | 2700 nM | 4400 nM | 1400 nM |  |  | 
7 | COc1cc(C2CCNCC2)c(C)cc1Nc1ncc(Cl)c(Nc2ccccc2NS(C)(=O)=O)n1 [Example 2, N-(2-((5-chloro-2-((2-methoxy-5-methyl-4-(piperidin-4-yl)phenyl)amino)pyrimidin-4-yl)amino)phenyl)methanesulfonamide] | 12 nM | 3 nM | 2400 nM | 730 nM | 12 nM | 3800 nM | 2800 nM | 1800 nM |  |  | 
8 | CNC1CCN(c2ccc(Nc3ncc(Cl)c(Nc4ccccc4NS(C)(=O)=O)n3)c(OC)c2)CC1 [Example 40, N-(2-((5-chloro-2-((2-methoxy-4-(4-(methylamino)piperidin-1-yl)phenyl)amino)pyrimidin-4-yl)amino)phenyl)methanesulfonamide] |  |  | 500 nM |  |  |  |  |  |  |  | 
9 | COc1cc(N2CCC(N3CCNCC3)CC2)ccc1Nc1ncc(Cl)c(Nc2ccccc2NS(C)(=O)=O)n1 [Example 21, N-(2-((5-chloro-2-((2-methoxy-4-(4-(piperazin-1-yl)piperidin-1-yl)phenyl)amino)pyrimidin-4-yl)amino)phenyl)methanesulfonamide] | 0.1 nM | 5 nM | 1700 nM | 160 nM | 14 nM | 3600 nM | 2200 nM | 550 nM |  |  | 
10 | COc1cc(N2CCC(N3C[C@@H](C)N[C@@H](C)C3)CC2)ccc1Nc1ncc(Cl)c(Nc2ccccc2NS(C)(=O)=O)n1 [Example 33, N-(2-((5-chloro-2-((4-(4-((3R,5S)-3,5-dimethylpiperazin-1-yl)piperidin-1-yl)-2-methoxyphenyl)amino)pyrimidin-4-yl)amino)phenyl)methanesulfonamide] |  | < 1 nM | 120 nM |  |  |  |  |  |  |  | 
11 | COc1cc(N2CCC(N3CCN(CCO)CC3)CC2)ccc1Nc1ncc(Cl)c(Nc2ccccc2NS(C)(=O)=O)n1 [Example 22, N-(2-((5-chloro-2-((4-(4-(4-(2-hydroxyethyl)piperazin-1-yl)piperidin-1-yl)-2-methoxyphenyl)amino)pyrimidin-4-yl)amino)phenyl)methanesulfonamide] | 0.4 nM |  |  | 260 nM | 31 nM | 900 nM |  |  | 0.8 nM | 1300 nM | 390 nM
12 | COc1cc(C2CCNCC2)ccc1Nc1ncc(C(F)(F)F)c(Nc2ccccc2NS(C)(=O)=O)n1 [Example 5, N-(2-((2-((2-methoxy-4-(piperidin-4-yl)phenyl)amino)-5-(trifluoromethyl)pyrimidin-4-yl)amino)phenyl)methanesulfonamide] | 33 nM | 14 nM | 790 nM | 4300 nM | 13 nM | 260 nM | 2400 nM | 570 nM |  |  | 
13 | COc1cc(C2CCNCC2)ccc1Nc1ncc(Cl)c(Nc2ccccc2NS(C)(=O)=O)n1 [Example 1, N-(2-((5-chloro-2-((2-methoxy-4-(piperidin-4-yl)phenyl)amino)pyrimidin-4-yl)amino)phenyl)methanesulfonamide] |  |  |  |  |  | 6600 nM | > 15000 nM | 7100 nM |  |  | 
14 | COc1cc(N2CCNCC2)ccc1Nc1ncc(Cl)c(Nc2ccccc2NS(C)(=O)=O)n1 [Example 23, N-(2-((5-chloro-2-((2-methoxy-4-(piperazin-1-yl)phenyl)amino)pyrimidin-4-yl)amino)phenyl)methanesulfonamide] | 25 nM | 29 nM |  | 2700 nM | 32 nM |  |  |  |  |  | 
15 | COc1cc(N2CCNCC2)ccc1Nc1ncc(C(F)(F)F)c(Nc2ccccc2NS(C)(=O)=O)n1 [Example 31, N-(2-((2-((2-methoxy-4-(piperazin-4-yl)phenyl)amino)-5-(trifluoromethyl)pyrimidin-4-yl)amino)phenyl)methanesulfonamide] | 36 nM | 7 nM |  | 580 nM | 29 nM |  |  |  |  |  | 
16 | COc1cc(N2CCN(C3CCNCC3)CC2)ccc1Nc1ncc(Cl)c(Nc2ccccc2NS(C)(=O)=O)n1 [Example 27, N-(2-((5-chloro-2-((2-methoxy-4-(4-(piperidin-4-yl)piperazin-1-yl)phenyl)amino)pyrimidin-4-yl)amino)phenyl)methanesulfonamide] | 0.3 nM | 1 nM | > 10000 nM | 280 nM | 21 nM | 1100 nM |  | 940 nM |  |  | 
17 | COc1cc(N2CCC(N)CC2)ccc1Nc1ncc(Cl)c(Nc2ccccc2NS(C)(=O)=O)n1 [Example 38, N-(2-((2-((4-(4-aminopiperidin-1-yl)-2-methoxyphenyl)amino)-5-chloropyrimidin-4-yl)amino)phenyl)methanesulfonamide] |  |  | 840 nM |  |  |  |  |  |  |  | 
18 | COc1cc(N2CCC(N3CCOCC3)CC2)ccc1Nc1ncc(Cl)c(Nc2ccccc2NS(C)(=O)=O)n1 [Example 34, N-(2-((5-chloro-2-((2-methoxy-4-(4-morpholinopiperidin-1-yl)phenyl)amino)pyrimidin-4-yl)amino)phenyl)methanesulfonamide] |  | < 1 nM | 160 nM |  |  |  |  |  |  |  | 
